Legend:
[1] = xn = mol fraction of the nth substance listed; conditions: 101 kPa, Liquid; for speed of sound: Sing-around technique in a fixed-path interferometer
[2] = 101 kPa, Liquid; for speed of sound: Sing-around technique in a fixed-path interferometer

CCCCCCCC[n+]1ccn(C)c1.F[B-](F)(F)F [1-methyl-3-octylimidazolium tetrafluoroborate] + CCCCN
[1], x1 = 1
Conditions	mass density [kg/m3]	speed of sound [m/s]
298.15 K	1097.61	1481.1
308.15 K	1090.9	1453.9
318.15 K	1084.17	1428.2

CCCCCCCCN [1-octanamine] + CCCCCCCC[n+]1ccn(C)c1.F[B-](F)(F)F
[1]
Conditions	mass density, 298.15 K [kg/m3]	mass density, 308.15 K [kg/m3]	mass density, 318.15 K [kg/m3]	speed of sound, 298.15 K [m/s]	speed of sound, 308.15 K [m/s]	speed of sound, 318.15 K [m/s]
x2 = 0	777.45	769.46	761.47	1343.2	1303.1	1263.5
x2 = 0.1563	851.54	843.71	835.78	1353.1	1314.6	1276.9
x2 = 0.3025	910.65	902.92	895.08	1370.2	1334.4	1299
x2 = 0.4175	951.05	943.4	935.73	1387.6	1353.8	1320.5
x2 = 0.5225	983.58	976.2	968.62	1404.3	1372.4	1340.9
x2 = 0.6252	1011.86	1004.63	997.3	1420.9	1390.6	1360.7
x2 = 0.7202	1035.54	1028.44	1021.3	1436.5	1407.1	1378.4
x2 = 0.794	1052.58	1045.53	1038.51	1449	1419.9	1392.2
x2 = 0.7994	1053.88	1046.83	1039.75	1449.2	1421.1	1393.2
x2 = 0.8691	1069.21	1062.23	1055.21	1461.3	1432.7	1405.8
x2 = 0.9259	1081.47	1074.59	1067.76	1470.5	1442.2	1416.1

CCCCCCn1cc[n+](C)c1.F[B-](F)(F)F [1-hexyl-3-methylimidazolium tetrafluoroborate] + CCCCCCCCN
[1], x1 = 1
Conditions	mass density [kg/m3]	speed of sound [m/s]
298.15 K	1145.11	1496.7
308.15 K	1137.71	1472
318.15 K	1130.49	1447.7

CCCCCCn1cc[n+](C)c1.F[B-](F)(F)F [1-hexyl-3-methylimidazolium tetrafluoroborate]
[2]
Conditions	mass density [kg/m3]	speed of sound [m/s]
298.15 K	1145.11	1496.7
308.15 K	1137.71	1472
318.15 K	1130.49	1447.7

CCCCCCCCN [1-octanamine] + CCCCCCn1cc[n+](C)c1.F[B-](F)(F)F
[1]
Conditions	mass density, 298.15 K [kg/m3]	mass density, 308.15 K [kg/m3]	mass density, 318.15 K [kg/m3]	speed of sound, 298.15 K [m/s]	speed of sound, 308.15 K [m/s]	speed of sound, 318.15 K [m/s]
x2 = 0	777.45	769.46	761.47	1343.2	1303.1	1263.5
x2 = 0.2986	914.74	906.98	899.32	1365.4	1331.6	1306.8
x2 = 0.398	954.27	946.51	938.79	1379.9	1345.6	1317.5
x2 = 0.4981	991.03	983.38	975.59	1396.2	1364.9	1333.8
x2 = 0.5999	1025.72	1017.96	1010.27	1416.6	1386.2	1356.4
x2 = 0.6994	1057.35	1049.51	1041.89	1437.5	1409.6	1381.5
x2 = 0.7998	1087.45	1079.76	1072.25	1460.3	1433.5	1408.2
x2 = 0.8945	1114.95	1107.34	1099.87	1479.6	1455.6	1431.7

CCCCN [1-butanamine] + CCCCCCn1cc[n+](C)c1.F[B-](F)(F)F
[1]
Conditions	mass density, 298.15 K [kg/m3]	mass density, 308.15 K [kg/m3]	mass density, 318.15 K [kg/m3]	speed of sound, 298.15 K [m/s]	speed of sound, 308.15 K [m/s]	speed of sound, 318.15 K [m/s]
x2 = 0	733.33	723.67	714	1246.5	1201.3	1156.2
x2 = 0.0994	820.09	810.83	803.47	1272.3	1231.1	1188.8
x2 = 0.2012	890.48	881.55	874.79	1305.8	1267.4	1229
x2 = 0.302	946.28	937.89	930.48	1341	1305.5	1270.1
x2 = 0.4065	993.19	985.04	977.3	1376.3	1343.8	1312
x2 = 0.4959	1026.43	1018.45	1010.64	1404.6	1374.3	1344.3
x2 = 0.5886	1055.62	1047.87	1040.15	1428.9	1401.1	1373.6
x2 = 0.7069	1086.83	1079.26	1071.7	1456.2	1429.9	1403.8
x2 = 0.8126	1110.28	1102.83	1095.43	1474.1	1450.2	1423.8
x2 = 0.8796	1123.46	1116.13	1108.89	1483.2	1459.8	1433.9

CCCCN [1-butanamine] + CCCCCCCC[n+]1ccn(C)c1.F[B-](F)(F)F
[1]
Conditions	mass density, 298.15 K [kg/m3]	mass density, 308.15 K [kg/m3]	mass density, 318.15 K [kg/m3]	speed of sound, 298.15 K [m/s]	speed of sound, 308.15 K [m/s]	speed of sound, 318.15 K [m/s]
x2 = 0	733.33	723.67	714	1246.5	1201.3	1156.2
x2 = 0.0963	817.1	807.93	800.03	1276.5	1235	1193.1
x2 = 0.1917	880.04	871.4	863.91	1309	1270.6	1232
x2 = 0.2948	932.2	924.07	916.37	1344.1	1309	1274
x2 = 0.3866	968.66	960.74	953.13	1371.6	1338.8	1306.4
x2 = 0.49	1001.63	993.95	986.41	1398.9	1368.2	1337.9
x2 = 0.5895	1027.36	1019.96	1012.6	1421.3	1391.9	1363.3
x2 = 0.7124	1053.43	1046.28	1039.31	1442.7	1414.8	1387.4
x2 = 0.7925	1067.91	1060.88	1053.97	1454.2	1427.1	1400
x2 = 0.8843	1082.31	1075.48	1068.67	1465.8	1438.8	1412.3

CCCCN [1-butanamine]
[2]
Conditions	mass density [kg/m3]	speed of sound [m/s]
298.15 K	733.33	1246.5
308.15 K	723.67	1201.3
318.15 K	714	1156.2

CCCCCCCC[n+]1ccn(C)c1.F[B-](F)(F)F [1-methyl-3-octylimidazolium tetrafluoroborate]
[2]
Conditions	mass density [kg/m3]	speed of sound [m/s]
298.15 K	1097.61	1481.1
308.15 K	1090.9	1453.9
318.15 K	1084.17	1428.2

CCCCCCCCN [1-octanamine]
[2]
Conditions	mass density [kg/m3]	speed of sound [m/s]
298.15 K	777.45	1343.2
308.15 K	769.46	1303.1
318.15 K	761.47	1263.5

CCCCCCCC[n+]1ccn(C)c1.F[B-](F)(F)F [1-methyl-3-octylimidazolium tetrafluoroborate] + CCCCCCCCN
[1], x1 = 1
Conditions	mass density [kg/m3]	speed of sound [m/s]
298.15 K	1097.61	1481.1
308.15 K	1090.9	1453.9
318.15 K	1084.17	1428.2

CCCCCCn1cc[n+](C)c1.F[B-](F)(F)F [1-hexyl-3-methylimidazolium tetrafluoroborate] + CCCCN
[1], x1 = 1
Conditions	mass density [kg/m3]	speed of sound [m/s]
298.15 K	1145.11	1496.7
308.15 K	1137.71	1472
318.15 K	1130.49	1447.7

— the NIST ThermoML archive (doi:10.1021/je301167q)
